Experimental data from publication PMC6128854 (Scientific Reports, 2018).
Positions of bridges follow the written chain, without caps; N, C: chain ends. Non-standard residues stand in square brackets, D forms with d. Residues, ends and D or L forms follow the SMILES beside them. Hyp = O=C(O)[C@@H]1C[C@@H](O)CN1

Tests used:
hCav2.2 = hCav2.2 (Homo sapiens, UniProt Q00975); experiment: cell-based; details: SEM
[1] = target: Cav2.2 in human SH-SY5Y cell membranes (Homo sapiens, UniProt Q00975); experiment: biochemical; assay type: binding; details: SEM
Cav2.2 in human SH-SY5Y cell membranes, sequence (Q00975 whole entry, looked up): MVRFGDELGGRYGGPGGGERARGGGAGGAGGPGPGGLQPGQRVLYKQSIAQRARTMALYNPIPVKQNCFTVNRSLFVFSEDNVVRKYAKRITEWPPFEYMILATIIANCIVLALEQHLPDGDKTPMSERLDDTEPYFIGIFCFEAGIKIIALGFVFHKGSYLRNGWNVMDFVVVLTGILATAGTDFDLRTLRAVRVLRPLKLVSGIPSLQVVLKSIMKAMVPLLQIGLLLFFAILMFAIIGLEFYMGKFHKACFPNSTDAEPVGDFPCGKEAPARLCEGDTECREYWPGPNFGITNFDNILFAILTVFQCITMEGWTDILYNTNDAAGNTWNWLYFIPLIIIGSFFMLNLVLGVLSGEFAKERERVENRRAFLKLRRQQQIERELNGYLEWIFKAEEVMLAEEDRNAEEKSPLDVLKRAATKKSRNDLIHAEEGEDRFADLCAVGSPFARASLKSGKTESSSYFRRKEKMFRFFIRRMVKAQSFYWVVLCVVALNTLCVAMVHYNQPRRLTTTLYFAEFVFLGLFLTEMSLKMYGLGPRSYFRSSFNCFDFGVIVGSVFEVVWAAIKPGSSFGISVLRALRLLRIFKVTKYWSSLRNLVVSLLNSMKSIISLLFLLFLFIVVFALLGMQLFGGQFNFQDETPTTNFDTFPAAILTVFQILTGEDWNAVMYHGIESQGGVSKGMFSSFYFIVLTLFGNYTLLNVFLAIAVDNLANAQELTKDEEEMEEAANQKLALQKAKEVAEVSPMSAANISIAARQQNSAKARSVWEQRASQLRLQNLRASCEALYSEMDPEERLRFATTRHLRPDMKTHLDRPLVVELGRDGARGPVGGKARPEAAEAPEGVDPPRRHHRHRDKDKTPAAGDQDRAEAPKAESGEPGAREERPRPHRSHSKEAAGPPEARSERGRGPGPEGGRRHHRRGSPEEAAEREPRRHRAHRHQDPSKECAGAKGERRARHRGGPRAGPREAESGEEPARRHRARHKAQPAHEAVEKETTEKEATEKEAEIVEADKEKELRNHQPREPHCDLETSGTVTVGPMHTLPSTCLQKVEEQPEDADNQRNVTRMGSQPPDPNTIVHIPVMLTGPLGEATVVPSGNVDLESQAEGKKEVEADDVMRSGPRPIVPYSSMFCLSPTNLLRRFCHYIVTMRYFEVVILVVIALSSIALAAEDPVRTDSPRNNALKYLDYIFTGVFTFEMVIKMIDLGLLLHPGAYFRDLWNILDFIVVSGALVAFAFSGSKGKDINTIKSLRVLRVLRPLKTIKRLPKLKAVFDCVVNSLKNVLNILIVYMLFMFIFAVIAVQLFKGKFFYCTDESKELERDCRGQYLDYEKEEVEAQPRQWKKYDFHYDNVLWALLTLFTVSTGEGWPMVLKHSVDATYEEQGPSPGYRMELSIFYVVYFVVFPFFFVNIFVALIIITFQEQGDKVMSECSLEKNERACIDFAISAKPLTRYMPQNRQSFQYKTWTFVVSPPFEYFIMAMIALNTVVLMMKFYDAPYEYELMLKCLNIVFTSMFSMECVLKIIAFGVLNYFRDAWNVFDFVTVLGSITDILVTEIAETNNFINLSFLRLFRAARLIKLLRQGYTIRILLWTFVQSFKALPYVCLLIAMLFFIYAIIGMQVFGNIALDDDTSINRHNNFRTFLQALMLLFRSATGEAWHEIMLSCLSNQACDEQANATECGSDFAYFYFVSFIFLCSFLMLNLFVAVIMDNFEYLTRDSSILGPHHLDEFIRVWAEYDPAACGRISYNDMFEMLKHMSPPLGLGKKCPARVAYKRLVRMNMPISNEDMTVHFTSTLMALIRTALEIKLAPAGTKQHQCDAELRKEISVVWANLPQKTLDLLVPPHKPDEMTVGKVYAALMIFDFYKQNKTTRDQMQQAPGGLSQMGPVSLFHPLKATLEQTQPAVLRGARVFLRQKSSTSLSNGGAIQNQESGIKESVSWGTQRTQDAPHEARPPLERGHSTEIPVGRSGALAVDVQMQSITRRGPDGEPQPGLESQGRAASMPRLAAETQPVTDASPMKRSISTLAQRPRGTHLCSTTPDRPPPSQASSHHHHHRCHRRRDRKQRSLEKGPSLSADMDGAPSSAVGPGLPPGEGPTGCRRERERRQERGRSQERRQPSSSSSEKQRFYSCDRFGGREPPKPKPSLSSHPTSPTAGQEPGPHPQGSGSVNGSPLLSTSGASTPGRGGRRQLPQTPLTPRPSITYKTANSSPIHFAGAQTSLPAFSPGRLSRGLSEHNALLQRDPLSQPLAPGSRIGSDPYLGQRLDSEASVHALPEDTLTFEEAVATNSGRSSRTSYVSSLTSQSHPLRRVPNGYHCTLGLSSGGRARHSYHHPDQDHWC

hCav2.2, sequence (Q00975 whole entry, looked up): as above

Row | Compound | IC50 (hCav2.2) [nM] | IC50 [1] [nM]
1 | C[C@@H](O)[C@@H]1NC(=O)[C@H](Cc2ccc(O)cc2)NC(=O)[C@@H]2C[C@@H](O)CN2C(=O)[C@H](CC(N)=O)NC(=O)[C@@H]2CSSC[C@@H]3NC(=O)[C@H](CO)NC(=O)[C@H](CO)NC(=O)CNC(=O)[C@@H]4C[C@@H](O)CN4C(=O)[C@H](CO)NC(=O)[C@H](CCCCN)NC(=O)[C@@H](N)CSSC[C@H](NC(=O)[C@H](CSSC[C@@H](C(=O)N[C@@H](Cc4ccc(O)cc4)C(N)=O)NC(=O)[C@H](CCCN=C(N)N)NC(=O)[C@H](CCCCN)NC1=O)NC(=O)[C@H](CC(N)=O)NC(=O)[C@H](Cc1ccc(O)cc1)NC(=O)[C@H](CO)NC(=O)[C@H]([C@@H](C)O)NC(=O)[C@@H]1C[C@@H](O)CN1C(=O)[C@H](CO)NC3=O)C(=O)N[C@@H](CCCN=C(N)N)C(=O)N[C@@H](CO)C(=O)N2 [GVIA, reference compound] | 170 ± 25 | 0.078 ± 0.012
2 | CC[C@H](C)[C@@H]1NC(=O)[C@@H]2CSSC[C@@H]3NC(=O)[C@H](CCCCN)NC(=O)[C@H](CO)NC(=O)CNC(=O)[C@@H]4C[C@@H](O)CN4C(=O)[C@@H]4CCCN4C(=O)[C@H](CCCCN)NC(=O)[C@@H](N)CSSC[C@H](NC(=O)[C@H](CSSC[C@@H](C(=O)N[C@@H](CCCNC(=N)N)C(=O)N[C@@H](CCCCN)C(=O)N[C@@H](Cc4ccc(O)cc4)C(=O)N[C@@H](Cc4ccc(O)cc4)C(=O)N[C@@H](CC(N)=O)C(=O)O)NC(=O)[C@H](CCCNC(=N)N)NC(=O)[C@H](CCCCN)NC(=O)[C@H]([C@@H](C)O)NC(=O)[C@H](Cc4ccc(O)cc4)NC(=O)[C@H](CO)NC1=O)NC(=O)[C@H](CC(=O)O)NC(=O)[C@H](CCCNC(=N)N)NC(=O)[C@H](CCSC)NC(=O)[C@H](CO)NC(=O)[C@@H]1C[C@@H](O)CN1C(=O)[C@H](CO)NC3=O)C(=O)N[C@@H]([C@@H](C)O)C(=O)N[C@@H]([C@@H](C)O)C(=O)N2 [MoVIA] (H-CKP[Hyp]GSKCS[Hyp]SMRDCCTTCISYTKRCRKYYN-OH; disulfide 1-16, 8-19, 15-26) | 330 ± 18 | 0.035 ± 0.017
3 | CC[C@H](C)[C@@H]1NC(=O)[C@@H]2CSSC[C@@H]3NC(=O)[C@H](CCCCN)NC(=O)[C@H](CO)NC(=O)CNC(=O)[C@@H]4C[C@@H](O)CN4C(=O)[C@@H]4CCCN4C(=O)[C@H](CCCCN)NC(=O)[C@@H](N)CSSC[C@H](NC(=O)[C@H](CSSC[C@@H](C(=O)N[C@@H](CCCNC(=N)N)C(=O)N[C@@H](CCCCN)C(=O)N[C@@H](Cc4ccc(O)cc4)C(=O)N[C@@H](Cc4ccc(O)cc4)C(=O)O)NC(=O)[C@H](CCCNC(=N)N)NC(=O)[C@H](CCCCN)NC(=O)[C@H]([C@@H](C)O)NC(=O)[C@H](Cc4ccc(O)cc4)NC(=O)[C@H](CO)NC1=O)NC(=O)[C@H](CC(=O)O)NC(=O)[C@H](CCCNC(=N)N)NC(=O)[C@H](CCSC)NC(=O)[C@H](CO)NC(=O)[C@@H]1C[C@@H](O)CN1C(=O)[C@H](CO)NC3=O)C(=O)N[C@@H]([C@@H](C)O)C(=O)N[C@@H]([C@@H](C)O)C(=O)N2 [MoVIB] (H-CKP[Hyp]GSKCS[Hyp]SMRDCCTTCISYTKRCRKYY-OH; disulfide 1-16, 8-19, 15-26) | 600 ± 120 | 0.365 ± 0.204
